Each structure is given as a SMILES string. A value given as a limit tells only on which side of the number the result lay.

For 67 compounds, IC50 results are on record in US12331033B2, “Inhibitors of SARM1” (Disarm Therapeutics, Inc., priority 2020, dated 2025).

In this assay the target is SARM1 (ARM-SAM-TIR) (Homo sapiens (Human), UniProt Q6SZW1). In words: ARM-SAM-TIR SARM1 IC50 assay (NADase activity, NAD+ cleavage, RapidFire MS). The assay is classed as biochemical. Particulars: ARM-SAM-TIR lysate 5 μg/mL, 2 h pre-incubation, 5 μM NAD+, 2 hr room temperature. As to the method: This Example describes an assay of ARM-SAM-TIR NADase activity and use of this assay to measure the efficacy of compounds of Formula I or Formula I′ to block SARM1 mediated NAD+ cleavage. This assay was optimized in such a way as to characterize the efficacy of the compounds in Formula I or Formula I′ to inhibit SARM1 activity and to calculate an IC50 value for each compound. This assay makes use of full length SARM1, which encompasses the ARM, SAM and TIR domains.
SARM1 (ARM-SAM-TIR), sequence (Q6SZW1 other isoform, or with tags, fused parts or gaps): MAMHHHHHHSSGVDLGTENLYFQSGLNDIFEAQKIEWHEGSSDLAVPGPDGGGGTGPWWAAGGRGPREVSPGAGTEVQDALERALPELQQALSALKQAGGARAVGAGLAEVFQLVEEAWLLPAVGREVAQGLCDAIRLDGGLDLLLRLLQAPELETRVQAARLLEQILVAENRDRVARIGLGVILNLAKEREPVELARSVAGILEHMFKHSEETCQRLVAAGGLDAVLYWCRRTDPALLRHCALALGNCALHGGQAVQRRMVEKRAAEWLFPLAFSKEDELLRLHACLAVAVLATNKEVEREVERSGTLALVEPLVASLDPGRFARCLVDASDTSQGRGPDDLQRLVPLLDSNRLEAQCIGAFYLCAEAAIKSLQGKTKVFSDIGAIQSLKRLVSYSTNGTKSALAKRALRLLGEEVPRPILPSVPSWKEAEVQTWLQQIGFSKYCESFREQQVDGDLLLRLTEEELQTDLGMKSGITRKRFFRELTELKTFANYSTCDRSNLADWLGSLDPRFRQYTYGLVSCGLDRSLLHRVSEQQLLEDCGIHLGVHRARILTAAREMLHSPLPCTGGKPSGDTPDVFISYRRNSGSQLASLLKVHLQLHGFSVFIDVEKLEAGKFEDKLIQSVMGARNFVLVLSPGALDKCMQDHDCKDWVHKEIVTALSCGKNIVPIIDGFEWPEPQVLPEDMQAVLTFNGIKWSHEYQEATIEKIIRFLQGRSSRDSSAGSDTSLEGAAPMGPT
NRK1-HEK293T cells were seeded onto 150 cm^2 plates at 20×10^6 cells per plate. The next day, the cells were transfected with 15 μg ARM-SAM-TIR expression plasmid, SEQ ID NO: 1.
The cultures were supplemented with 1 mM NR at time of transfection to minimize toxicity from ARM-SAM-TIR overexpression. Forty-eight hours after transfection, cells were harvested, pelleted by centrifugation at 1,000 rpm (Sorvall ST 16R centrifuge, Thermo Fisher), and washed once with cold PBS (0.01 M phosphate buffered saline NaCl 0.138 M; KCl 0.0027 M; pH 7.4). The cells were resuspended in PBS with protease inhibitors (cOmplete™ protease inhibitor cocktail, Roche product #11873580001) and cell lysates were prepared by sonication (Branson Sonifer 450, output=3, 20 episodes of stroke). The lysates were centrifuged (12,000×g for 10 min at 4° C.) to remove cell debris and the supernatants (containing ARM-SAM-TIR protein) were stored at −80° C. for later use in the in vitro ARM-SAM-TIR NADase assay (see below). Protein concentration was determined by the Bicinchoninic (BCA) method and used to normalize lysate concentrations.
The enzymatic assay was performed in a 384-well polypropylene plate in Dulbecco's PBS buffer in a final assay volume of 20 μL. ARM-SAM-TIR lysate with a final concentration of 5 μg/mL was pre-incubated with the respective compound at 1% DMSO final assay concentration over 2 h at room temperature. The reaction was initiated by addition of 5 μM final assay concentration of NAD+ as substrate. After a 2 hr room temperature incubation, the reaction was terminated with 40 μL of stop solution of 7.5% trichloroactetic acid in acetonitrile. The NAD+ and ADPR concentrations were analyzed by a RapidFire High Throughput Mass Spectrometry System (Agilent Technologies, Santa Clara, Calif.) using an API4000 triple quadrupole mass spectrometer (AB Sciex Framingham, Mass.).
As usually defined, the IC50 is the concentration that gives 50% inhibition. A higher IC50 goes with weaker potency. As for `O=C(CCc1ccc(OC(F)(F)F)cc1)Nc1nnc(-c2ccncc2)[nH]1` [Example 120], the IC50 was less than 5 µM. The result for `CC(C)(CC(=O)Nc1nnc(-c2ccncc2)[nH]1)c1ccccc1` [Example 121] reads 15 to 30 µM; that for `Cn1c(CCC(=O)Nc2nnc(-c3ccncc3)[nH]2)nc2ccccc21` [Example 122], 15 to 30 µM; that for `O=C(CCc1cn2ccccc2n1)Nc1nnc(-c2ccncc2)[nH]1` [Example 123], 15 to 30 µM. For the compound `O=C(CCc1ccc(C(F)(F)F)cc1)Nc1nnc(-c2ccncc2)[nH]1` [Example 124], the IC50 is less than 5 µM. The result for `O=C(CCc1ccc(F)cc1)Nc1nnc(-c2ccncc2)[nH]1` [Example 125] reads less than 5 µM; that for `CS(=O)(=O)c1ccc(CCC(=O)Nc2nnc(-c3ccncc3)[nH]2)cc1` [Example 126], 15 to 30 µM; that for `COc1ccc(CCC(=O)Nc2nnc(-c3ccncc3)[nH]2)cc1` [Example 127], less than 5 µM. The compound `Cn1ccnc1CCC(=O)Nc1nnc(-c2ccncc2)[nH]1` [Example 128] came in with an IC50 greater than 30 µM.

`Cc1ccc(CCC(=O)Nc2nnc(-c3ccncc3)[nH]2)c(C)c1` [Example 129] gave an IC50 of less than 5 µM. `O=C(CCc1ccc2ccccc2c1)Nc1nnc(-c2ccncc2)[nH]1` [Example 130] had a 50% inhibitory concentration (IC50) greater than 30 µM.

Regarding `O=C(Nc1nnc(-c2ccncc2)[nH]1)C1CCc2ccccc2C1` (stereo not shown) [Example 131], the half-inhibitory concentration (IC50) is less than 5 µM.

`O=C(CC1CCCc2ccccc21)Nc1nnc(-c2ccncc2)[nH]1` (stereo not shown) [Example 132]: the IC50 is less than 5 µM. In the case of `Cn1cc(CCC(=O)Nc2nnc(-c3ccncc3)[nH]2)cn1` [Example 133] it was greater than 30 µM. The result for `O=C(CCC1CCCCC1)Nc1nnc(-c2ccncc2)[nH]1` [Example 134] reads 5 to 15 µM; that for `O=C(Nc1nc(-c2ccncc2)n[nH]1)c1ccccc1` [Example 135], 5 to 15 µM; that for `O=C(CCc1ccc(Cl)cc1)Nc1nnc(-c2ccncc2)[nH]1` [Example 136], less than 5 µM. In the case of `O=C(CCc1cccc(Cl)c1)Nc1nnc(-c2ccncc2)[nH]1` [Example 137] it was less than 5 µM. Compound `O=C(CCc1ccccc1Cl)Nc1nnc(-c2ccncc2)[nH]1` [Example 138] came in with an IC50 of less than 5 µM. The result for `Cc1ccc(CCC(=O)Nc2nnc(-c3ccncc3)[nH]2)cc1` [Example 139] reads less than 5 µM. Take `Cc1cccc(CCC(=O)Nc2nnc(-c3ccncc3)[nH]2)c1` [Example 140]: the half-maximal inhibitory concentration (IC50) was less than 5 µM. In the case of `Cc1ccccc1CCC(=O)Nc1nnc(-c2ccncc2)[nH]1` [Example 141] it was less than 5 µM; in that of `O=C(CCCc1ccccc1)Nc1nnc(-c2ccncc2)[nH]1` [Example 142], 5 to 15 µM; in that of `O=C(Cc1ccccc1)Nc1nnc(-c2ccncc2)[nH]1` [Example 143], 15 to 30 µM.

Take `CC(=O)Nc1nnc(-c2ccncc2)[nH]1` [Example 144]: the IC50 was greater than 30 µM. The result for `O=C(COc1ccccc1)Nc1nnc(-c2ccncc2)[nH]1` [Example 145] reads greater than 30 µM; that for `O=C(CCc1ccccc1)Nc1nnc(-c2ccncc2)[nH]1` [Example 146], less than 5 µM. With `Nc1nnc(-c2ccncc2)[nH]1` [Example 147], the IC50 was greater than 30 µM.

Turning to `Cc1ccc(OCC(=O)Nc2nnc(-c3ccncc3)[nH]2)c(C)c1` [Example 149], the IC50 lay within 15 to 30 µM.

Turning to `[2H]C([2H])([2H])c1c(-c2ccncc2)n[nH]c1NC(=O)C([2H])([2H])C([2H])([2H])c1ccc(Cl)nc1` [Example 150], the IC50 is less than 5 µM. In the case of `Cc1c(-c2ccncc2)n[nH]c1NC(=O)CCc1cnc(Cl)c(F)c1` [Example 151], the 50% inhibitory concentration (IC50) was less than 5 µM. The result for `Cc1c(-c2ccnnc2)n[nH]c1NC(=O)CCc1ccc(Cl)s1` [Example 152] reads less than 5 µM. The result for `Cc1c(-c2ccncc2)n[nH]c1NC(=O)CCc1ccc(F)nc1` [Example 153] reads less than 5 µM. In the case of `Cc1c(-c2ccnnc2)n[nH]c1NC(=O)CCc1ccc(Cl)c(F)c1` [Example 154] it was less than 5 µM; in that of `Cc1c(-c2ccnnc2)n[nH]c1NC(=O)CCc1ccc(Cl)cc1` [Example 155], less than 5 µM; in that of `O=C(CCc1ccc(Cl)cc1)Nc1nnc(-c2ccncn2)[nH]1` [Example 156], less than 5 µM.

`O=C(CCc1ccc(Cl)cc1)Nc1nnc(-c2ccns2)[nH]1` [Example 157] gave a half-maximal inhibitory concentration (IC50) of less than 5 µM. `O=C(CCc1ccc(C(F)(F)F)cc1)Nc1[nH]nc(-c2ccnnc2)c1Br` [Example 158] registered an IC50 of less than 5 µM. In the case of `O=C(CCc1ccc(Cl)s1)Nc1nc(-c2ccncc2)c[nH]1` [Example 159] it was less than 5 µM; in that of `O=C(NCc1cccc(Cl)c1)Nc1nnc(-c2ccncc2)[nH]1` [Example 160], less than 5 µM; in that of `NS(=O)(=O)c1c(-c2ccncc2)n[nH]c1NC(=O)CCc1ccc(Cl)cc1` [Example 161], 5 to 15 µM. `[2H]C([2H])(C(=O)Nc1cc(-c2ccncc2)n[nH]1)C([2H])([2H])c1ccc(Cl)cc1` [Example 162] showed a 50% inhibitory concentration (IC50) of less than 5 µM.

As for `Cn1cncc1-c1nnc(NC(=O)CCc2ccc(Cl)cc2)[nH]1` [Example 163], the IC50 was less than 5 µM. As to `CN(Cc1ccc(Cl)cc1)C(=O)Nc1nnc(-c2ccncc2)[nH]1` [Example 164], the half-inhibitory concentration (IC50) is less than 5 µM. In turn, `O=C(NCc1ccc(Cl)nc1)Nc1nnc(-c2ccncc2)[nH]1` [Example 165] showed a 50% inhibitory concentration (IC50) of less than 5 µM.

The compound `O=C(Nc1nnc(-c2ccncc2)[nH]1)N1CCc2nc(Cl)ccc2C1` [Example 166] had an IC50 of less than 5 µM.

Consider `O=C(CCc1ccc(Cl)cc1)Nc1[nH]nc(-c2ccncc2)c1Br` [Example 167], for which the concentration for half-maximal inhibition (IC50) is less than 5 µM. In turn, `O=C(CCc1ccc(Cl)cc1)Nc1[nH]nc(-c2ccncc2)c1F` [Example 168] displayed an IC50 of less than 5 µM. The result for `[2H]C([2H])(C(=O)Nc1nnc(-c2ccncc2)[nH]1)C([2H])([2H])c1ccc(Cl)cc1` [Example 169] reads less than 5 µM; that for `[2H]C([2H])(C(=O)Nc1[nH]nc(-c2ccncc2)c1C)C([2H])([2H])c1ccc(Cl)cc1` [Example 170], less than 5 µM; that for `[2H]C([2H])(C(=O)Nc1[nH]nc(-c2ccncc2)c1C)C([2H])([2H])c1ccc(Cl)nc1` [Example 171], less than 5 µM. In the case of `O=C(CC1CCOc2cc(Cl)ccc21)Nc1cc(-c2ccncc2)n[nH]1` (stereo not shown) [Example 172] it was less than 5 µM; in that of `Cc1c(-c2ccncc2)n[nH]c1NC(=O)CC1CCOc2cc(Cl)ccc21` (stereo not shown) [Example 173], less than 5 µM.

`O=C(NCc1ccc(Cl)nc1)Nc1cc(-c2ccncc2)n[nH]1` [Example 174] displayed a half-inhibitory concentration (IC50) of less than 5 µM. In the case of `NC(Cc1ccc(Cl)c(F)c1)C(=O)Nc1cc(-c2ccncc2)n[nH]1` (stereo not shown) [Example 175] it was less than 5 µM. The result for `CN[C@@H](Cc1ccc(Cl)cc1)C(=O)Nc1cc(-c2ccncc2)n[nH]1` [Example 176] reads less than 5 µM; that for `[2H]C([2H])(C(=O)Nc1[nH]nc(-c2ccnnc2)c1C)C([2H])([2H])c1ccc(Cl)cc1` [Example 177], less than 5 µM; that for `[2H]C([2H])(C(=O)Nc1[nH]nc(-c2ccnnc2)c1C)C([2H])([2H])c1ccc(Cl)nc1` [Example 178], less than 5 µM. In the case of `O=C(CC1CCOc2nc(Cl)ccc21)Nc1nnc(-c2ccncc2)[nH]1` (stereo not shown) [Example 179] it was less than 5 µM. With `O=C(CC1CCOc2cc(Cl)ncc21)Nc1nnc(-c2ccncc2)[nH]1` (stereo not shown) [Example 180], the IC50 is less than 5 µM. In the case of `O=C(Nc1cc(-c2ccncc2)n[nH]1)[C@H]1C[C@H](c2ccc(Cl)cc2)C1` [Example 181] it was less than 5 µM; in that of `Cc1c(-c2ccncc2)n[nH]c1NC(=O)[C@H]1C[C@H](c2ccc(Cl)cc2)C1` [Example 182], less than 5 µM.

Turning to `O=C(Nc1nnc(-c2ccncc2)[nH]1)NC1CCOc2cc(Cl)ccc21` (stereo not shown) [Example 183], the IC50 lay within 5 to 15 µM. In the case of `O=C(Nc1nnc(-c2ccncc2)[nH]1)NC1CCOc2nc(Cl)ccc21` (stereo not shown) [Example 184] it was 5 to 15 µM; in that of `O=C(Nc1nnc(-c2ccncc2)[nH]1)N1CCc2cc(Cl)ccc2C1` [Example 185], less than 5 µM; in that of `N#Cc1c(-c2ccncc2)n[nH]c1NC(=O)CCc1ccc(Cl)cc1` [Example 186], less than 5 µM.

In turn, `CCOC(=O)c1c(-c2ccncc2)n[nH]c1NC(=O)CCc1ccc(Cl)cc1` [Example 187] displayed an IC50 of less than 5 µM.
